Laboratory results as given in patent US12202818B2, “Compounds and methods for CD73 modulation and indications therefor” (Opna Bio SA, priority 2020, dated 2025).

Columns and labels:
human CD73 = target: T1, human CD73 (Homo sapiens, UniProt P21589); assay: Inhibitor activity against CD73 in cell based assay (CD73 expressing CHO-K1 cells); conditions: CHO-K1 cells expressing human CD73, 150 μM AMP, 4 hours of incubation; read-out: CHO-K1 CELL_VARIANT: CD73 IC50
T1 construct: expressed in transfected cells
T1 sequence (P21589 27-549): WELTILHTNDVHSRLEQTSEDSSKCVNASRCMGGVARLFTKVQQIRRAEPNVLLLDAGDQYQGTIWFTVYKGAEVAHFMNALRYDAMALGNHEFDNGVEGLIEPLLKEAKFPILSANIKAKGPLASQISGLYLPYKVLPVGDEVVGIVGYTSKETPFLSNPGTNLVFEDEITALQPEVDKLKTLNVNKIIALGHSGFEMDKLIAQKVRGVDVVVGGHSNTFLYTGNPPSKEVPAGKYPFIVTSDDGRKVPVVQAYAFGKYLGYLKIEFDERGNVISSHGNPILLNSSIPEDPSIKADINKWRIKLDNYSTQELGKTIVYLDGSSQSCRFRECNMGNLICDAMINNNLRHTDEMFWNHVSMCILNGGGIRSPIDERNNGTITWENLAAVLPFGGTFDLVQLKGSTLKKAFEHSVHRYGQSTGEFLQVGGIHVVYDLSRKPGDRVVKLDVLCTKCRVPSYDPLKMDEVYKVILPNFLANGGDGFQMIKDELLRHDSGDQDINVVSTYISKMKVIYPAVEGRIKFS
In short: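 Stable human CD73 CHO-K1 cells, 1×10^4/well, exposed to an 8-point 1:3 compound series (top 10 μM, 0.2% DMSO) plus 150 μM AMP for 4 h. Remaining AMP in the supernatant was read by CellTiter-Glo 2.0 luminescence with 1 μM ATP after 30 min at room temperature. IC50 came from nonlinear regression of % inhibition against cell and media-only controls.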

[1] = target: T2, Human CD73 (amino acid residues 27-549) (Homo sapiens, UniProt P21589); assay: CD73 enzymatic assay (luciferase-based indirect assay, CellTiter-Glo); type: biochemical; conditions: 0.4 nM CD73, 150 μM AMP, 1 hour at room temperature
T2 construct: Human CD73 (amino acid residues 27-549); His tag (N); made in house; host or cells: E. coli
T2 sequence (P21589 27-549): T1 sequence (P21589 27-549)
In short: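 N-His human CD73 (27-549) expressed in E. coli, 0.4 nM, incubated with 150 μM AMP and compound in 50 mM HEPES pH 7.4, 0.01% Tween-20, 1 h at RT. Remaining AMP read via CellTiter-Glo luminescence with 1 μM ATP after 30 min; IC50 from nonlinear regression of % inhibition.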

| Compound | IC50 (human CD73) [µM] | IC50 [1] [µM] |
| --- | --- | --- |
| COC(=O)C1C2CCC1CN(c1ccnc(O[C@@H]3CCN(c4cn[nH]c(=O)c4Cl)C3)c1)C2 (stereo partly drawn) [P-0028, methyl 3-(2-(((R)-1-(5-chloro-6-oxo-1,6-dihydropyridazin-4-yl)pyrrolidin-3-yl)oxy)pyridin-4-yl)-3-azabicyclo[3.2.1]octane-8-carboxylate] | 0.001 to 10 | 0.001 to 10 |
| COCc1noc(C)c1-c1cc(O[C@@H]2CCN(c3cnn(CCO)c(=O)c3Cl)C2)ncn1 [P-0124, (R)-4-chloro-2-(2-hydroxyethyl)-5-(3-((6-(3-(methoxymethyl)-5-methylisoxazol-4-yl)pyrimidin-4-yl)oxy)pyrrolidin-1-yl)pyridazin-3(2H)-one] | 0.001 to 10 | 0.001 to 10 |
| Cc1nn(CCN2CCOCC2)c(C)c1-c1cc(F)nc(O[C@@H]2CCN(c3cn[nH]c(=O)c3Cl)C2)c1 [P-0160, (R)-4-chloro-5-(3-((4-(3,5-dimethyl-1-(2-morpholinoethyl)-1H-pyrazol-4-yl)-6-fluoropyridin-2-yl)oxy)pyrrolidin-1-yl)pyridazin-3(2H)-one] | 0.001 to 10 | 0.001 to 10 |
| O=c1[nH]ncc(N2CC[C@@H](Oc3cncc(O[C@@H]4CCN(c5cn[nH]c(=O)c5Cl)C4)c3)C2)c1Cl [P-0163, 5,5′-((3R,3′R)-(pyridine-3,5-diylbis(oxy))bis(pyrrolidine-3,1-diyl))bis(4-chloropyridazin-3(2H)-one)] | 0.001 to 10 | 0.001 to 10 |
| O=c1[nH]ncc(N2CC[C@@H](Oc3cc(C4=CCCCC4)ccn3)C2)c1Cl [P-0116, (R)-4-chloro-5-(3-((4-(cyclohex-1-en-1-yl)pyridin-2-yl)oxy)pyrrolidin-1-yl)pyridazin-3(2H)-one] | 0.001 to 10 | 0.001 to 10 |
| Cc1nn(C)c(C)c1-c1ccnc(O[C@@H]2CCN(c3cnn(CCO)c(=O)c3Cl)C2)c1 [P-0143, (R)-4-chloro-2-(2-hydroxyethyl)-5-(3-((4-(1,3,5-trimethyl-1H-pyrazol-4-yl)pyridin-2-yl)oxy)pyrrolidin-1-yl)pyridazin-3(2H)-one] | 0.001 to 10 | 0.001 to 10 |
| Cc1noc(C)c1-c1cc(O[C@H]2CN(c3cnn(CCO)c(=O)c3Cl)C[C@@H]2F)ncc1F [P-0132, 4-chloro-5-((3S,4S)-3-((4-(3,5-dimethylisoxazol-4-yl)-5-fluoropyridin-2-yl)oxy)-4-fluoropyrrolidin-1-yl)-2-(2-hydroxyethyl)pyridazin-3(2H)-one] | 0.001 to 10 | 0.001 to 10 |
| Cc1nn(CCN(C)C)c(C)c1-c1cc(F)nc(O[C@@H]2CCN(c3cn[nH]c(=O)c3Cl)C2)c1 [P-0161, (R)-4-chloro-5-(3-((4-(1-(2-(dimethylamino)ethyl)-3,5-dimethyl-1H-pyrazol-4-yl)-6-fluoropyridin-2-yl)oxy)pyrrolidin-1-yl)pyridazin-3(2H)-one] | 0.001 to 10 | 0.001 to 10 |
| Cc1c(-c2cc(F)nc(O[C@@H]3CCN(c4cn[nH]c(=O)c4Cl)C3)c2)cnn1CC1(C)COC1 [P-0151, (R)-4-chloro-5-(3-((6-fluoro-4-(5-methyl-1-((3-methyloxetan-3-yl)methyl)-1H-pyrazol-4-yl)pyridin-2-yl)oxy)pyrrolidin-l-yl)pyridazin-3(2H)-one] | 0.001 to 10 | 0.001 to 10 |
| CC(C)(O)CN1CCC(c2ccnc(O[C@@H]3CCN(c4cn[nH]c(=O)c4Cl)C3)c2)CC1 [P-0010, (R)-4-chloro-5-(3-((4-(1-(2-hydroxy-2-methylpropyl)piperidin-4-yl)pyridin-2-yl)oxy)pyrrolidin-1-yl)pyridazin-3(2H)-one] | 0.001 to 10 | 0.001 to 10 |
| Cc1noc(C)c1-c1cc(O[C@H]2CN(c3cnn(CC(O)CO)c(=O)c3Cl)C[C@@H]2F)ncc1F (stereo partly drawn) [P-0129, 4-chloro-2-(2,3-dihydroxypropyl)-5-((3S,4S)-3-((4-(3,5-dimethylisoxazol-4-yl)-5-fluoropyridin-2-yl)oxy)-4-fluoropyrrolidin-1-yl)pyridazin-3(2H)-one] | 0.001 to 10 | 0.001 to 10 |
| Cc1noc(C)c1-c1cc(O[C@H]2CN(c3cn[nH]c(=O)c3Cl)C[C@@H]2F)ccn1 [P-0122, 4-chloro-5-((3S,4S)-3-((2-(3,5-dimethylisoxazol-4-yl)pyridin-4-yl)oxy)-4-fluoropyrrolidin-1-yl)pyridazin-3(2H)-one] | 0.001 to 10 | 0.001 to 10 |
| CC(C)c1cc(Nc2cccnc2O[C@@H]2CCN(c3cn[nH]c(=O)c3Cl)C2)n(C)n1 [P-0109, (R)-4-chloro-5-(3-((3-((3-isopropyl-1-methyl-1H-pyrazol-5-yl)amino)pyridin-2-yl)oxy)pyrrolidin-1-yl)pyridazin-3(2H)-one] | 0.001 to 10 | 0.001 to 10 |

Results, then the molecule that gave them:

| IC50 (human CD73) [µM] | IC50 [1] [µM] | Compound |
| --- | --- | --- |
| 0.001 to 10 | 0.001 to 10 | Cc1c(-c2cccc(O[C@@H]3CCN(c4cn[nH]c(=O)c4Cl)C3)c2)cnn1C [P-0196, (R)-4-chloro-5-(3-(3-(1,5-dimethyl-1H-pyrazol-4-yl)phenoxy)pyrrolidin-1-yl)pyridazin-3(2H)-one] |
| 0.001 to 10 | 0.001 to 10 | O=c1[nH]ncc(N2CC[C@@H](Oc3cc(-c4ccc(S(=O)(=O)NC5CC5)cc4)c(Cl)cn3)C2)c1Cl [P-0251, (R)-4-(5-chloro-2-((1-(5-chloro-6-oxo-1,6-dihydropyridazin-4-yl)pyrrolidin-3-yl)oxy)pyridin-4-yl)-N-cyclopropylbenzenesulfonamide] |
| 0.001 to 10 | 0.001 to 10 | Cc1nn(CC2CC(F)(F)C2)c(C)c1-c1cc(F)nc(O[C@@H]2CCN(c3cn[nH]c(=O)c3Cl)C2)c1 [P-0187, (R)-4-chloro-5-(3-((4-(1-((3,3-difluorocyclobutyl)methyl)-3,5-dimethyl-1H-pyrazol-4-yl)-6-fluoropyridin-2-yl)oxy)pyrrolidin-1-yl)pyridazin-3(2H)-one] |
| 0.001 to 10 | 0.001 to 10 | O=c1[nH]ncc(N2CC[C@@H](Oc3cc(-c4ccc(S(=O)(=O)NC5CC5)cc4)c(F)cn3)C2)c1Cl [P-0238, (R)-4-(2-((1-(5-chloro-6-oxo-1,6-dihydropyridazin-4-yl)pyrrolidin-3-yl)oxy)-5-fluoropyridin-4-yl)-N-cyclopropylbenzenesulfonamide] |
| 0.001 to 10 | 0.001 to 10 | Cc1nn(C)c(C)c1-c1cncc(O[C@@H]2CCN(c3cn[nH]c(=O)c3Cl)C2)c1 [P-0168, (R)-4-chloro-5-(3-((5-(1,3,5-trimethyl-1H-pyrazol-4-yl)pyridin-3-yl)oxy)pyrrolidin-1-yl)pyridazin-3(2H)-one] |
| 0.001 to 10 | 0.001 to 10 | CCCn1nc(C)c(-c2cc(F)nc(O[C@@H]3CCN(c4cn[nH]c(=O)c4)C3)c2)c1C [P-0164, (R)-5-(3-((4-(3,5-dimethyl-1-propyl-1H-pyrazol-4-yl)-6-fluoropyridin-2-yl)oxy)pyrrolidin-1-yl)pyridazin-3(2H)-one] |
| 0.001 to 10 | 0.001 to 10 | Cc1noc(C)c1-c1ccnc(O[C@H]2CN(c3cn[nH]c(=O)c3Cl)C[C@@H]2F)c1 [P-0180, 4-chloro-5-((3S,4S)-3-((4-(3,5-dimethylisoxazol-4-yl)pyridin-2-yl)oxy)-4-fluoropyrrolidin-1-yl)pyridazin-3(2H)-one] |
| 0.001 to 10 | 0.001 to 10 | Cc1nn(C)c(C)c1-c1cc(F)nc(O[C@@H]2CCN(c3cn[nH]c(=O)c3Cl)C2)c1 [P-0200, (R)-4-chloro-5-(3-((6-fluoro-4-(1,3,5-trimethyl-1H-pyrazol-4-yl)pyridin-2-yl)oxy)pyrrolidin-1-yl)pyridazin-3(2H)-one] |
| 0.001 to 10 | 0.001 to 10 | CCCNS(=O)(=O)c1ccc(-c2cc(F)nc(O[C@@H]3CCN(c4cn[nH]c(=O)c4Cl)C3)c2)c(C)c1 [P-0216, (R)-4-(2-((1-(5-chloro-6-oxo-1,6-dihydropyridazin-4-yl)pyrrolidin-3-yl)oxy)-6-fluoropyridin-4-yl)-3-methyl-N-propylbenzenesulfonamide] |
| 0.001 to 10 | 0.001 to 10 | Cc1nn(C)c(C)c1-c1cc(O[C@@H]2CCN(c3cn[nH]c(=O)c3Cl)C2)ncn1 [P-0181, (R)-4-chloro-5-(3-((6-(1,3,5-trimethyl-1H-pyrazol-4-yl)pyrimidin-4-yl)oxy)pyrrolidm-1-yl)pyridazin-3(2H)-one] |
| 0.001 to 10 | 0.001 to 10 | O=c1[nH]ncc(N2CC[C@@H](Oc3cc(-c4c(F)cc(S(=O)(=O)NC5CC5)cc4F)ccn3)C2)c1Cl [P-0207, (R)-4-(2-((1-(5-chloro-6-oxo-1,6-dihydropyridazin-4-yl)pyrrolidin-3-yl)oxy)pyridin-4-yl)-N-cyclopropyl-3,5-difluorobenzenesulfonamide] |
